“Also recorded” adds a separate entry of the source.
Assays:
[1] = system: sera derived from C57BL/6 female mice (9 weeks old) implanted with B16 melanoma cells; test: ELISA: reactivity of serum of tumor-implanted mice with gangliosides; type: binding, mouse; settings: for Reactivity of mouse serum: sera of mice implanted with B16 melanoma cells, 2 weeks after implantation, 100 ng ganglioside per well, absorbance at 490 nm, Fig. 2
Experimental: (§1) A serum was obtained by clotting of blood which was collected from a mouse retroorbitally (eyeground method) and removing the clotted blood by centrifugation.
(§2) ELISA assay was conducted by the conventional method.
(§3) 100 ng of each ganglioside dissolved in ethanol was added to each well of a 96-well microtiter plate and then allowed to stand at 37°C to remove ethanol completely. A blocking solution comprising a phosphate buffer solution (PBS) containing 5% of bovine serum albumin (BSA) or the like was added to the wells and the plate was incubated at 37°C for 2 hours. After the blocking solution was removed, the collected mouse serum was added to each well and the plate was incubated at 37°C for 1 hour. Each well was washed with a phosphate buffer solution containing 1% of BSA. Anti-mouse IgG, IgM and IgA antibodies which were labeled with peroxidase were added to each well and the plate was incubated at 37°C for 1 hour. Each well was washed with a phosphate buffer solution containing 1% of BSA. A substrate solution containing 400 µg/ml of o-phenylenediamine and 0.001% of hydrogen peroxide was added to each well, and the reaction was conducted at room temperature for 15 minutes. 8N sulfuric acid was added to stop the reaction and then the absorbance of the reaction mixture in each well was measured at 490 nm by using a spectrophotometer for a microtiter plate.
In Fig. 2, ●, △, ▲ and □ show the data with respect to a serum derived from a tumor the diameter of which is 5 mm or less, 6 mm, 8 mm and 16 mm, respectively.
Values shown in Fig. 1 and Fig. 2 were obtained by subtracting background values and taking the average of three wells.
Values shown in Fig. 3 were obtained by subtracting background values and taking the average of three wells.

[2] = system: normal sera derived from C57BL/6 femal mice; test: ELISA: reactivity of normal mouse serum with gangliosides; type: binding; settings: C57BL/6 female mice 9 weeks old, 100 ng ganglioside per well, absorbance at 490 nm, Fig. 1
Experimental: as §1, §2
as §3, with “plate. […]” for “plate.”

[3] = system: reactivity of mouse serum with epiGM₃; test: ELISA: inhibition by acetylneuraminic acid of the reactivity of mouse serum with epiGM₃; type: binding; settings: sodium N-acetylneuraminate solutions of various concentration added to serum of tumor-implanted mouse; Fig. 4
Experimental: as §3
Sodium N-acetylneuraminate solutions of various concentration were added to the same sera of mice as those used in the above (2). Values shown in Fig. 4 were obtained by subtracting background values and taking the average of three wells. […]

| SMILES | Reactivity of mouse serum [1] | Reactivity of mouse serum [2] | Inhibition of the reactivity of mouse serum with epiGM₃ [3] | reaction level / reactivity compared with sera derived from normal mice ([1]; sera of mice implanted with B16 melanoma cells versus normal sera, Fig. 2 versus Fig. 1) | reactivity (rank among GM₃, epiGM₃, GM₄, epiGM₄, GM₅ and epiGM₅) ([1]; serum of the mouse with a 6 mm tumor, diluted 200 times, Fig. 3) |
| --- | --- | --- | --- | --- | --- |
| CCCCCCCCCCCCCC=CC(O)C(COC1OC(CO)C(OC2OC(CO)C(O)C(OC3(C(=O)O)CC(O)C(NC(C)=O)C(C(O)C(O)CO)O3)C2O)C(O)C1O)NC(=O)CCCCCCCCCCCCCCCCCCCCCCC (stereo not shown) [GM₃, reference compound] | did not react | did not react |  |  |  |
| CC(=O)N[C@H]1[C@H]([C@H](O)[C@H](O)CO)OC(O)(C(=O)O)C[C@@H]1O (stereo partly shown) [N-acetylneuraminic acid] |  |  | inhibited |  |  |
| CCCCCCCCCCCCCC=CC(O)C(COC1OC(CO)C(OC2OC(CO)C(O)C(OC3(C(=O)O)CC(O)C(NC(C)=O)C(C(O)C(O)CO)O3)C2O)C(O)C1O)NC(=O)CCCCCCCCCCCCCCCCCCCCCCC (stereo not shown) [epiGM₃] | reacted | reacted |  | remarkably increased; also recorded: stronger | strongest |
